Measured values from the supplement of paper PMC10627819.

Tests used:
S. pneumoniae D39V [1] = assay: fitness (endpoint OD595 vs no drug) (fraction); higher = more growth
How it was run: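 Fitness was measured as bacterial growth in 384-well plates inoculated at OD595 0.01 (30 µl, or 55 µl for S. pneumoniae). Media were TSB, LB Lennox or CY, at 37 °C. OD595 was read every 30 min for 14 h and background-subtracted against the first reading. Fitness is OD595 at the transition into stationary phase divided by the robust mean of no-drug control wells, capped at 1.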

B. subtilis 168 = assay: Bliss interaction score (quartile over a dose matrix) (fitness difference); higher = more antagonism (negative = synergy)
How it was run: (§1)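 The Bliss score is observed fitness minus expected fitness, where the expected value is the product of single-drug fitness values inferred from combination data. Fitness is OD595 at entry into stationary phase normalised to the plate's robust no-drug mean and capped at 1. Scores are reported as quartiles spanning technical, biological and donor/recipient replicates.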

S. aureus DSM 20231 = assay: as above
How it was run: as §1

S. aureus Newman = assay: as above
How it was run: as §1

S. pneumoniae D39V [2] = assay: as above
How it was run: as §1
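Wherever Bliss interaction score (quartile over a dose matrix) is given: first quartile when negative (synergy) and third quartile when positive (antagonism).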
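Wherever fitness (endpoint OD595 vs no drug) is given: OD595 on entry to stationary phase over no-drug wells; at most 1.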

CC[C@H]1OC(=O)[C@H](C)[C@@H](O[C@H]2C[C@@](C)(OC)[C@@H](O)[C@H](C)O2)[C@H](C)[C@@H](O[C@@H]2O[C@H](C)C[C@H](N(C)C)[C@H]2O)[C@](C)(OC)C[C@@H](C)C(=O)[C@H](C)[C@@H](O)[C@]1(C)O [Clarithromycin] + CC(=O)NC[C@H]1CN(c2ccc(N3CCOCC3)c(F)c2)C(=O)O1 [Linezolid]
fitness, S. pneumoniae D39V [1], one replicate
Conditions	first compound 0.007812 µg/mL	first compound 0.01562 µg/mL	first compound 0.03125 µg/mL
partner 0.2 µg/mL	0.728	0.709	0.581
partner 0.4 µg/mL	0.565	0.609	0.452
partner 0.8 µg/mL	0.277	0.314	0.193

fitness, S. pneumoniae D39V [1]
Conditions	first compound 0.0625 µg/mL	first compound 0.07 µg/mL	first compound 0.125 µg/mL	first compound 0.14 µg/mL	first compound 0.25 µg/mL	first compound 0.28 µg/mL
partner 0.105 µg/mL	0.637	–	0.35	–	0.111	–
partner 0.2 µg/mL	–	0.0674	–	0.0794	–	0.0498
partner 0.21 µg/mL	0.533	–	0.269	–	0.0783	–
partner 0.4 µg/mL	–	0.0735	–	0.0846	–	0.0492
partner 0.42 µg/mL	0.326	–	0.163	–	0.101	–
partner 0.8 µg/mL	–	0.0543	–	0.0384	–	0.0345

Conditions	Bliss interaction score
B. subtilis 168	-0.0553
S. aureus DSM 20231	-0.135
S. aureus Newman	-0.119
S. pneumoniae D39V [2]	-0.0363

CC[C@H]1OC(=O)[C@H](C)[C@@H](O[C@H]2C[C@@](C)(OC)[C@@H](O)[C@H](C)O2)[C@H](C)[C@@H](O[C@@H]2O[C@H](C)C[C@H](N(C)C)[C@H]2O)[C@](C)(OC)C[C@@H](C)C(=O)[C@H](C)[C@@H](O)[C@]1(C)O [Clarithromycin] + CC(C1CCC(C(O1)OC2C(CC(C(C2O)OC3C(C(C(CO3)(C)O)NC)O)N)N)N)NC [Gentamicin]
fitness, S. pneumoniae D39V [1], one replicate, main component drawn
Conditions	first compound 0.007812 µg/mL	first compound 0.01562 µg/mL	first compound 0.03125 µg/mL
partner 2 µg/mL	0.876	0.84	0.63
partner 4 µg/mL	0.873	0.878	0.651
partner 8 µg/mL	0.885	0.842	0.645

fitness, S. pneumoniae D39V [1], main component drawn
Conditions	first compound 0.0625 µg/mL	first compound 0.07 µg/mL	first compound 0.125 µg/mL	first compound 0.14 µg/mL	first compound 0.25 µg/mL	first compound 0.28 µg/mL
partner 2 µg/mL	0.45	0.146	0.228	0.0838	0.0804	0.0949
partner 4 µg/mL	0.447	0.144	0.206	0.0957	0.0925	0.0738
partner 8 µg/mL	0.349	0.195	0.169	0.132	0.104	0.0605

main component drawn
Conditions	Bliss interaction score
B. subtilis 168	0.0895
S. aureus DSM 20231	0.12
S. aureus Newman	0.108
S. pneumoniae D39V [2]	-0.06

CC[C@H]1OC(=O)[C@H](C)[C@@H](O[C@H]2C[C@@](C)(OC)[C@@H](O)[C@H](C)O2)[C@H](C)[C@@H](O[C@@H]2O[C@H](C)C[C@H](N(C)C)[C@H]2O)[C@](C)(OC)C[C@@H](C)C(=O)[C@H](C)[C@@H](O)[C@]1(C)O [Clarithromycin] + CCC(C)C1C(=O)NC(=C)C(=O)NC(C(=O)NC(CSCC(C(=O)N1)NC(=O)/C(=C/C)/NC(=O)C(C(C)CC)N)C(=O)NC2C(SCC(NC(=O)CNC(=O)C3CCCN3C2=O)C(=O)NC(CCCCN)C(=O)NC4C(SCC(NC(=O)CNC(=O)C(NC(=O)C(NC(=O)C(NC(=O)CNC4=O)C)CC(C)C)CCSC)C(=O)NC(CC(=O)N)C(=O)NC(CCSC)C(=O)NC(CCCCN)C(=O)NC5C(SCC6C(=O)NC(C(=O)NC(CSC(C(C(=O)N6)NC(=O)C(NC5=O)C)C)C(=O)NC(CO)C(=O)NC(C(C)CC)C(=O)NC(CC7=CN=CN7)C(=O)NC(C(C)C)C(=O)NC(=C)C(=O)NC(CCCCN)C(=O)O)CC8=CN=CN8)C)C)C)CC(C)C [Nisin]
fitness, S. pneumoniae D39V [1], one replicate, main component drawn
Conditions	first compound 0.007812 µg/mL	first compound 0.01562 µg/mL	first compound 0.03125 µg/mL
partner 1.6 µg/mL	0.0546	0.105	0.0716
partner 3.2 µg/mL	0.0468	0.0811	0.0837
partner 6.4 µg/mL	0.0495	0.123	0.0731

S. pneumoniae D39V [1], main component drawn
Conditions	fitness
first compound 0.0625 µg/mL, partner 0.4275 µg/mL	0.704
first compound 0.0625 µg/mL, partner 1.71 µg/mL	0.0947
first compound 0.07 µg/mL, partner 1.6 µg/mL	0.0167
first compound 0.07 µg/mL, partner 3.2 µg/mL	0.0245
first compound 0.07 µg/mL, partner 6.4 µg/mL	0.0168
first compound 0.125 µg/mL, partner 0.4275 µg/mL	0.233
first compound 0.125 µg/mL, partner 0.855 µg/mL	0.118
first compound 0.125 µg/mL, partner 1.71 µg/mL	0.0991
first compound 0.14 µg/mL, partner 1.6 µg/mL	0.019
first compound 0.14 µg/mL, partner 3.2 µg/mL	0.0272
first compound 0.14 µg/mL, partner 6.4 µg/mL	0.0323
first compound 0.25 µg/mL, partner 0.4275 µg/mL	0.0872
first compound 0.25 µg/mL, partner 0.855 µg/mL	0.0757
first compound 0.25 µg/mL, partner 1.71 µg/mL	0.0969
first compound 0.28 µg/mL, partner 1.6 µg/mL	0.0103
first compound 0.28 µg/mL, partner 3.2 µg/mL	0.0421
first compound 0.28 µg/mL, partner 6.4 µg/mL	0.0171

main component drawn
Conditions	Bliss interaction score
B. subtilis 168	0.0377
S. aureus DSM 20231	-0.0781
S. aureus Newman	-0.0489
S. pneumoniae D39V [2]	0.0379
